From US9115145B2, “Tocotrienol derivatives and associated methods” (FIRST TECH INTERNATIONAL LIMITED, priority 2011, dated 2015)

Tested on: MDA-MB-231 human breast cancer cells
Assay: Wound-healing assay (cell migration)
Format: cell-based
Conditions: MDA-MB-231, wound-healing assay, dose response; read-out: IC50 antimigratory activity
How it was run: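 Scratch wounds made in confluent (>95%) monolayers, then compounds added in fresh medium (5 μM in screening; concentration range in follow-up), DMSO as negative control, triplicate. After 24 h serum-starved at 37 °C, cells fixed and Diff-Quick stained. Migrated cells counted per 400× field (≥3 fields); IC50 from concentration range.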

CC(C)=CCC/C(C)=C/CC/C(C)=C/CC[C@]1(C)CCc2cc(O)c(C)c(C)c2O1 [Compound 1, γ-tocotrienol, reference compound]
IC50: > 40 µM
